Reference: patent US20230365554A1, “SUBSTITUTED PYRROLO-PYRIDINONE DERIVATIVES AND THERAPEUTIC USES THEREOF” (The Broad Institute, Inc., priority 2020, published 2023)
“And” between values parts separate entries of the source, which are not always exact repeats. Identical values can stand only once.

Assays:
[1] = biological target: wild-type Epidermal Growth Factor Receptor (EGFR) (Homo sapiens (Human), UniProt P00533); assay: WT-EGFR kinase assay (TR-FRET, 2 mM ATP); format: biochemical; settings: median or individual measurements, Table 3, read-out: EGFR Wildtyp-2mM ATP IC50 [mol/l] (median)
Text: Inhibitory activity of compounds of the present invention against wild-type Epidermal Growth Factor Receptor (EGFR) was quantified employing the TR-FRET based EGFR assay as described in the following paragraphs.
Recombinant fusion protein of N-terminal Glutathion-S-Transferase (GST) and a fragment of human EGFR (amino acids R669 to A1210), expressed in Sf9 insect cells and purified via affinity chromatography using Glutathion Sepharose as described above, was used as kinase. As substrate for the kinase reaction the biotinylated peptide biotin-Ahx-AEEEEYFELVAKKK (C-terminus in amide form) was used which can be purchased e.g. form the company Biosynthan GmbH (Berlin-Buch, Germany).
For the assay 50 nl of a 100 fold concentrated solution of the test compound in DMSO was pipetted into either a black low volume 384 well microtiter plate or a black 1536 well microtiter plate (both Greiner Bio-One, Frickenhausen, Germany), 2 μL of a solution of EGFR in aqueous assay buffer [50 mM Hepes pH 7.0, 10 mM MgCl2, 1 mM dithiothreitol, 0.5 mM EGTA, 0.3 mM activated sodium ortho-vanadate, 0.005% (w/v) bovine serum albumin, 0.005% (v/v) Tween-20] were added and the mixture was incubated for 15 min at 22° C. to allow pre-binding of the test compounds to the enzyme before the start of the kinase reaction. Then the kinase reaction was started by the addition of 3 μL of a solution of adenosine-tri-phosphate (ATP, 3.33 mM=>final conc. in the 5 μL assay volume is 2 mM) and substrate (1.67 μM=>final conc. in the 5 μL assay volume is 1 μM) in assay buffer and the resulting mixture was incubated for a reaction time of 30 min at 22° C. The concentration of EGFR was adjusted depending of the activity of the enzyme lot and was chosen appropriate to have the assay in the linear range, typical concentration was 7.6 pg/μL. The reaction was stopped by the addition of 3 μL of a solution of HTRF detection reagents (83.3 nM streptavidine-XL665 [Cisbio Bioassays, Codolet, France] and 1.67 nM PT66-Tb-Cryptate, a terbium-cryptate labelled anti-phospho-tyrosine antibody from Cisbio Bioassays [instead of the PT66-Tb-cryptate PT66-Eu-Chelate from Perkin Elmer can also be used]) in an aqueous EDTA-solution (133.3 mM EDTA, 0.2% (w/v) bovine serum albumin in 50 mM HEPES pH 7.5).
The resulting mixture was incubated 1 h at 22° C. to allow the binding of the biotinylated phosphorylated peptide to the streptavidine-XL665 and the PT66-Tb-Cryptate. Subsequently the amount of phosphorylated substrate was evaluated by measurement of the resonance energy transfer from the PT66-Tb-Cryptate to the streptavidine-XL665. Therefore, the fluorescence emissions at 620 nm and 665 nm after excitation at 337 nm were measured in a HTRF reader, e.g. a Pherastar (BMG Labtechnologies, Offenburg, Germany) or a Viewlux (Perkin-Elmer). The ratio of the emissions at 665 nm and at […] was taken as the measure for the amount of phosphorylated substrate. The data were normalised (enzyme reaction without inhibitor=0% inhibition, all other assay components but no enzyme=100% inhibition).

human CSNK1D = human CSNK1D (Homo sapiens (Human), UniProt P48730); assay: CSNK1D assay (ADP-Glo, 1 μM ATP); format: biochemical; settings: median, Table 2, read-out: CSNK1D IC50 [mol/l] (median)
Description: CSNK1D-inhibitory activity of compounds of the present invention in presence of 1 μM adenosine-tri-phosphate (ATP) was quantified employing the CSNK1D assay as described in the following paragraphs. In essence, the enzyme activity is measured by quantification of the adenosine-di-phosphate (ADP), which is generated as a co-product of the enzyme reaction, via the “ADP-Glo™ Kinase Assay” kit from the company Promega. This detection system works as follows: In a first step the ATP not consumed in the kinase reaction is quantitatively converted to cAMP employing an adenylate cyclase (“ADP-Glo-reagent”), then the adenylate cyclase is stopped and the ADP generated in the kinase reaction converted to ATP which generates in a luciferase-based reaction a glow-luminescence signal (“Kinase Detection Reagent”).
Recombinant fusion protein of N-terminal Glutathion-S-Transferase (GST) and full-length human CSNK1D, expressed by baculovirus infected insect cells and purified via Glutathion affinity chromatography, was purchased from Life Technologies (product no. PV3665) and used as enzyme. As substrate for the kinase reaction the biotinylated peptide Btn-Ahx-SGSEGDSESGEEEG (C-terminus in amide form) was used which can be purchased e.g. from the company Biosyntan (Berlin-Buch, Germany).
For the assay 50 nl of a 100 fold concentrated solution of the test compound in DMSO was pipetted into a white 1536-well microtiter plate (Greiner Bio-One, Frickenhausen, Germany), 2 μL of a solution of CSNK1D in aqueous assay buffer [50 mM HEPES pH 7.5, 10% (v/v) glycerol, 10 mM MgCl2, 50 mM NaCl, 1 mM dithiothreitol, 0.01% (w/v) bovine serum albumin, 0.01% (v/v) Triton X-100] were added and the mixture was incubated for 15 min at 22° C. to allow pre-binding of the test compounds to the enzyme before the start of the kinase reaction. Then the kinase reaction was started by the addition of 3 μL of a solution of ATP (1.67 μM=>final conc. in the 5 μL assay volume is 1 μM) and peptide substrate (50 μM=>final conc. in the 5 μL assay volume is 30 μM) in assay buffer and the resulting mixture was incubated for a reaction time of 30 min at 22° C. The concentration of CSNK1D was adjusted depending of the activity of the enzyme lot and was chosen appropriate to have the assay in the linear range, a typical concentration is about 0.5 ng/μL. The reaction was stopped by the addition of 2.5 μL of “ADP-Glo-reagent” (1:1.5 fold diluted with water) and the resulting mixture was incubated at 22° C. for 1 h to convert the ATP not consumed in the kinase reaction completely […]. Subsequently 2.5 μL of the “kinase detection reagent” (1.2 fold more concentrated than recommended by the producer) were added, the resulting mixture was incubated at 22° C. for 1 h and then the luminescence measured with a suitable measurement instrument (e.g. Viewlux™ from Perkin-Elmer). The amount of emitted light was taken as a measure for the amount of ADP generated and thereby for the activity of the CSNK1D.
The data were normalised (enzyme reaction without inhibitor=0% inhibition, all other assay components but no enzyme=100% inhibition).

Chain of wild-type Epidermal Growth Factor Receptor (EGFR) (P00533 669-1210): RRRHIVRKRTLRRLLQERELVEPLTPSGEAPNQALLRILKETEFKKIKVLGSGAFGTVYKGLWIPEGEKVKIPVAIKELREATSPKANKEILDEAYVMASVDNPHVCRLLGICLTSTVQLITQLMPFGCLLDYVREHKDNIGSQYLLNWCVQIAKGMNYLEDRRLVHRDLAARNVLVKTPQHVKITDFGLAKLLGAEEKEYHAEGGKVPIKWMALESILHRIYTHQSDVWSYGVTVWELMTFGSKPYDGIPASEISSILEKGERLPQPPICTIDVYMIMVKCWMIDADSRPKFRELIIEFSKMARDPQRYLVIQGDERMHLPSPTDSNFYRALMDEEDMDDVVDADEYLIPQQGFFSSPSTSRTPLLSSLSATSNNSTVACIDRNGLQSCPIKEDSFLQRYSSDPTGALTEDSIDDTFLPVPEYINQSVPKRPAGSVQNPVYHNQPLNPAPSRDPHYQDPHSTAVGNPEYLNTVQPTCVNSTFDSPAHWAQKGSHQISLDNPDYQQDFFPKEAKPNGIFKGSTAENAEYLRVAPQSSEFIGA
Chain of human CSNK1D (P48730 whole entry): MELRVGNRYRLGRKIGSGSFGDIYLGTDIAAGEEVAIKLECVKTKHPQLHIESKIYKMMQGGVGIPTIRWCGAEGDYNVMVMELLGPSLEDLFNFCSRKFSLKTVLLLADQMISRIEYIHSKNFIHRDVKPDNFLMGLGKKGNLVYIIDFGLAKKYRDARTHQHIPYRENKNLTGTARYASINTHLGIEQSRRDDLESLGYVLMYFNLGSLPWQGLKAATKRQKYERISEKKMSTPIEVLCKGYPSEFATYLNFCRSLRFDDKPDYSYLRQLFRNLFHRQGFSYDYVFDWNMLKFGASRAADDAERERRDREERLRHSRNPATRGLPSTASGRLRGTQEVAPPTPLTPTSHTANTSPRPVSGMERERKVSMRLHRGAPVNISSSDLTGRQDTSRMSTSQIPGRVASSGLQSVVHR

Row | SMILES | IC50 [1] | IC50 (human CSNK1D) [nM]
1 | CN1CC(CC2CC2)c2[nH]c(-c3ccnc(NC(=O)Cc4ccc(F)cc4)c3)c(Nc3cscn3)c2C1=O (single isomer, unassigned) [Example 50, N-{4-[(7R or S)-7-(cyclopropylmethyl)-5-methyl-4-oxo-3-(1,3-thiazol-4-ylamino)-4,5,6,7-tetrahydro-1H-pyrrolo[3,2-c]pyridin-2-yl]pyridin-2-yl}-2-(4-fluorophenyl)acetamide] | > 20000 nM | 9.9
2 | Cc1cc2[nH]c(-c3ccnc(NC(=O)C(CC(F)F)c4ccc(F)cc4)c3)c(Nc3ccccc3F)c2c(=O)n1C (racemic) [Example 31, 4,4-difluoro-N-{4-[3-(2-fluoroanilino)-5,6-dimethyl-4-oxo-4,5-dihydro-1H-pyrrolo[3,2-c]pyridin-2-yl]pyridin-2-yl}-2-(4-fluorophenyl)butanamide] | > 20000 nM | 32
3 | CN1CC(CC(F)F)c2[nH]c(-c3ccnc(NC(=O)Cc4ccc(F)cc4)c3)c(Nc3ccccc3)c2C1=O (single isomer, unassigned) [Example 43, N-{4-[3-anilino-7-(2,2-difluoroethyl)-5-methyl-4-oxo-4,5,6,7-tetrahydro-1H-pyrrolo[3,2-c]pyridin-2-yl]pyridin-2-yl}-2-(4-fluorophenyl)acetamide] | 410 nM | 4.3
4 | CN1CC(CC(F)(F)F)c2[nH]c(-c3ccnc(NC(=O)Cc4ccc(F)cc4)c3)c(Nc3cscn3)c2C1=O (single isomer, unassigned) [Example 47, 2-(4-fluorophenyl)-N-{4-[(7R or S)-5-methyl-4-oxo-3-(1,3-thiazol-4-ylamino)-7-(2,2,2-trifluoroethyl)-4,5,6,7-tetrahydro-1H-pyrrolo[3,2-c]pyridin-2-yl]pyridin-2-yl}acetamide] | > 20000 nM | 8.4
5 | CN1CC(CC(F)(F)F)c2[nH]c(-c3ccnc(NC(=O)C(CC(F)F)c4ccc(F)cc4)c3)c(Nc3ccccc3)c2C1=O (centres unmarked) [Example 17, N-{4-[3-anilino-5-methyl-4-oxo-7-(2,2,2-trifluoroethyl)-4,5,6,7-tetrahydro-1H-pyrrolo[3,2-c]pyridin-2-yl]pyridin-2-yl}-4,4-difluoro-2-(4-fluorophenyl)butanamide] | > 20000 nM and > 5700 nM and 3700 nM and 3200 nM | 17
6 | Cn1ccc2[nH]c(-c3ccnc(NC(=O)C(CC(F)F)c4ccc(F)cc4)c3)c(Nc3ccccc3)c2c1=O (single isomer, unassigned) [Example 30, N-[4-(3-anilino-5-methyl-4-oxo-4,5-dihydro-1H-pyrrolo[3,2-c]pyridin-2-yl)pyridin-2-yl]-4,4-difluoro-2-(4-fluorophenyl)butanamide] | > 20 µM (2×) and 3.9 µM and 5.1 µM and 5.5 µM and 7.2 µM and 15 µM and 10 µM | 7.1
7 | Cn1ccc2[nH]c(-c3ccnc(NC(=O)C(CC(F)F)c4ccc(F)cc4)c3)c(Nc3ccccc3)c2c1=O (single isomer, unassigned) [Example 29, N-[4-(3-anilino-5-methyl-4-oxo-4,5-dihydro-1H-pyrrolo[3,2-c]pyridin-2-yl)pyridin-2-yl]-4,4-difluoro-2-(4-fluorophenyl)butanamide] | > 20000 nM | 53
8 | Cc1cn(C)c(=O)c2c(Nc3ccccc3)c(-c3ccnc(NC(=O)C(CC(F)F)c4ccc(F)cc4)c3)[nH]c12 (racemic) [Example 11, N-[4-(3-anilino-5,7-dimethyl-4-oxo-4,5-dihydro-1H-pyrrolo[3,2-c]pyridin-2-yl)pyridin-2-yl]-4,4-difluoro-2-(4-fluorophenyl)butanamide] | > 20000 nM | 25
9 | Cc1cn(C)c(=O)c2c(Nc3ccccc3)c(-c3ccnc(NC(=O)C(CC(F)F)c4ccc(F)cc4)c3)[nH]c12 (single isomer, unassigned) [Example 13, N-[4-(3-anilino-5,7-dimethyl-4-oxo-4,5-dihydro-1H-pyrrolo[3,2-c]pyridin-2-yl)pyridin-2-yl]-4,4-difluoro-2-(4-fluorophenyl)butanamide] | > 20000 nM | 22
10 | CCC1CNC(=O)c2c1[nH]c(-c1ccnc(NC(=O)Cc3ccc(F)cc3)c1)c2Nc1ccccc1 (single isomer, unassigned) [Example 3, N-{4-[3-anilino-7-ethyl-4-oxo-4,5,6,7-tetrahydro-1H-pyrrolo[3,2-c]pyridin-2-yl]pyridin-2-yl}-2-(4-fluorophenyl)acetamide] | 320 nM | 10
11 | CC1CN(C)C(=O)c2c1[nH]c(-c1ccnc(NC(=O)Cc3ccc(F)cc3)c1)c2Nc1ccccc1 (racemic) [Example 6, N-{4-[3-anilino-5,7-dimethyl-4-oxo-4,5,6,7-tetrahydro-1H-pyrrolo[3,2-c]pyridin-2-yl]pyridin-2-yl}-2-(4-fluorophenyl)acetamide] | 1400 nM | 6.5
12 | CN1CC(CC2CC2)c2[nH]c(-c3ccnc(NC(=O)Cc4ccc(F)cc4)c3)c(Nc3ccccc3)c2C1=O (single isomer, unassigned) [Example 20, N-{4-[3-anilino-7-(cyclopropylmethyl)-5-methyl-4-oxo-4,5,6,7-tetrahydro-1H-pyrrolo[3,2-c]pyridin-2-yl]pyridin-2-yl}-2-(4-fluorophenyl)acetamide] | 8000 nM | 29
13 | CN1CC(CC(F)(F)F)c2[nH]c(-c3ccnc(NC(=O)C(CC(F)F)c4ccc(F)cc4)c3)c(Nc3cscn3)c2C1=O (single isomer, unassigned) [Example 56, (2R or S)-4,4-difluoro-2-(4-fluorophenyl)-N-{4-[(7R or S)-5-methyl-4-oxo-3-[(1,3-thiazol-4-yl)amino]-7-(2,2,2-trifluoroethyl)-4,5,6,7-tetrahydro-1H-pyrrolo[3,2-c]pyridin-2-yl]pyridin-2-yl}butanamide] | > 20000 nM | 13
